Patent US6585964B1, “Method for preventing or minimizing biodegradation of a substance” (Biospherics Incorporated, priority 1999, dated 2003)
Square brackets hold non-standard residues; d marks the D form. Peptide text beside a SMILES is read from it. * marks the point of attachment. Cbz = O=C(OCc1ccccc1)*

Key:
carboxypeptidase = settings: compared with the L-enantiomorph, which is hydrolysed; cited from earlier work
sense of smell = test: Human smell test of menthol enantiomers evaporated from acetone solution in Petri dishes; assay type: in vivo; settings: 0.001M solution in acetone, twenty drops, acetone evaporated at room temperature; six human subjects, test performed twice each
Description: The naturally-occurring optical isomer of menthol (1R,2S,5R)−(−) is used as a fragrance in a variety of products, such as perfumes, gums, and cigarettes. Both the natural and the unnatural (1S,2R,5S)−(+) optical isomer of menthol were obtained in 99% purity. A 0.001M solution of each enantiomer was prepared in reagent grade acetone. The solutions were allowed to equilibrate at room temperature for approximately one hour. Twenty drops of each solution were pipetted into separate glass Petri dishes. All glassware was clean. The acetone was then allowed to evaporate at room temperature. A human subject then smelled the two Petri dishes separately and recorded any sensations. The subject had been instructed to determine the presence of odor in the Petri dishes, and, if odor emanated from each, to determine whether the odors were the same or different. The test was performed twice on each of six human subjects, three female and three male. Each subject was given freshly prepared Petri dish servings to smell, and each immediately recorded his or hers impressions without communicating with the other subjects.

| Structure (SMILES) | action of carboxypeptidase (hydrolysis) on the compound (carboxypeptidase) | odor the same as or different from the natural form (sense of smell) | presence of odor (sense of smell) |
| --- | --- | --- | --- |
| O=C(CNC(=O)OCc1ccccc1)N[C@H](Cc1ccccc1)C(=O)O [carbobenzoxyglycyl-D-phenalalanine] (Cbz-Gly-[dF]-OH) | no measurable action |  |  |
| CC1CC[C@H](C(C)C)[C@@H](O)C1 (stereo partly drawn) [unnatural form of menthol, (1S,2R,5S)-(+)-Menthol] |  | the same as that of the natural form | had odor |
